pEC50, pIC50, pKi: −log10 of the molar value. Read-outs that look alike come from different tables or passages of the source.
Assays:
[1] = molecular target: GCN2 kinase (Homo sapiens (Human), UniProt Q9P2K8); experiment: GCN2 Enzyme Inhibition Assay (Transcreener ADP2 fluorescence polarization); format: biochemical; conditions: 280 μM ATP, 200 μM (RS)7 peptide, 4 nM GCN2, 25° C.; for pKi: Ki(app)
Procedure, shortened: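 At 25 °C, GCN2 kinase (typical final concentration 4 nM) and (RS)7 peptide in Tris-HCl pH 7.5 buffer with MgCl2, NaCl and DTT were preincubated with compound for 10 min, then ATP was added for a 1 h reaction. ADP was read by FP with antibody/Alexa633 tracer. Non-linear tight-binding analysis gave IC50 and apparent Ki.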

[2] = molecular target: intracellular GCN2 (phosphorylation of the GCN2 substrate eIF2α) (Homo sapiens (Human), UniProt Q9P2K8); experiment: GCN2 Cellular Inhibition Assay (AlphaScreen SureFire P-eIF2α Ser51, borrelidin-treated U2OS cells); format: cell-based; conditions: 10 μM borrelidin, 1 h, phosphorylated eIF2α Ser51, read-out: GCN2 Biomarker (IC50)
Procedure, shortened: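 Phospho-eIF2α (Ser51) measured by AlphaScreen SureFire in lysates of U2OS cells stimulated 1 h at 37 °C with 10 μM borrelidin alongside compound, 4-fold dilutions from 40 μM. Inhibition expressed as percent relative to borrelidin-alone controls.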

[3] = test system: primary human pan T-cells; experiment: Human IL-2 Assay for GCN2 Inhibition (IL-2 secretion from T cells in low amino acid condition); format: cell-based; conditions: IL-2 secretion from human T cells stimulated with anti-CD3/CD28 in low amino acid condition, ELISA; for pEC50: read-out: IL2/T-cell EC50
Source text: Tumor microenvironment is profoundly immuno-suppressive. This may be attributed to the depletion of amino acids (like arginine and tryptophan) which triggers the activation of GCN2 in immune cells, including T cell and myeloid cells. In T cells, activation of GCN2 leads to reduce effector functions of CD8 T cells and induction and/or maintenance of immuno-suppressive T-regs. Inhibition of that immuno-suppressive response by GCN2 inhibitors enables an anti-cancer immune response by activating effector T-cells. Herein we describe an in-vitro system we established using human T-cells stimulated in low amino acid condition in order to engage the GCN2 biology. The method described involves the modulation of IL-2 levels secreted by human T cells in responses to the GCN2 inhibitors disclosed herein.
Amino acid-free RPMI was reconstituted with all but one of the amino acids found in standard RMPI (e.g. Arginine, Tryptophan), 10% charcoal-stripped fetal bovine serum, 100 Units/mL penicillin and 0.1 mg/mL streptomycin. Primary human pan T-cells were isolated using Pan T Cell Isolation Kit, human (MACS Miltenyi biotech Cat # Order no. 130-096-535) from apheresis cones and 5×104 pan T-cells per well. The purified T cells are seeded in Nunc™ 96-Well Polystyrene Round Bottom Microwell Plates (the cells are rested in No TRP media in a 15 ml falcon tube in the incubator for 30-45 minutes while titrations for tryptophan and the GCN2 inhibitor compound are made) A plate matrix was developed to titrate both a GCN2 inhibitor and the amino acid of interest ranging from “No Amino Acid” condition, up to the concentration found in the regular RPMI media (20 μM for TRP and 950 μM for Arginine). The cells were incubated for 30 min at 37° C. with the GCN2 inhibitor and then stimulated with 5×104 anti-CD3/CD28 Dynabeads® per well. After 96 hours of incubation the IL-2 level in the supernatant were measured using ELISA (R&D systems Cat # DY202 (Human IL-2 DuoSet ELISA). Data were plotted in GraphPad Prism software and EC50 is calculated.

Chain of GCN2 kinase (Q9P2K8 whole entry): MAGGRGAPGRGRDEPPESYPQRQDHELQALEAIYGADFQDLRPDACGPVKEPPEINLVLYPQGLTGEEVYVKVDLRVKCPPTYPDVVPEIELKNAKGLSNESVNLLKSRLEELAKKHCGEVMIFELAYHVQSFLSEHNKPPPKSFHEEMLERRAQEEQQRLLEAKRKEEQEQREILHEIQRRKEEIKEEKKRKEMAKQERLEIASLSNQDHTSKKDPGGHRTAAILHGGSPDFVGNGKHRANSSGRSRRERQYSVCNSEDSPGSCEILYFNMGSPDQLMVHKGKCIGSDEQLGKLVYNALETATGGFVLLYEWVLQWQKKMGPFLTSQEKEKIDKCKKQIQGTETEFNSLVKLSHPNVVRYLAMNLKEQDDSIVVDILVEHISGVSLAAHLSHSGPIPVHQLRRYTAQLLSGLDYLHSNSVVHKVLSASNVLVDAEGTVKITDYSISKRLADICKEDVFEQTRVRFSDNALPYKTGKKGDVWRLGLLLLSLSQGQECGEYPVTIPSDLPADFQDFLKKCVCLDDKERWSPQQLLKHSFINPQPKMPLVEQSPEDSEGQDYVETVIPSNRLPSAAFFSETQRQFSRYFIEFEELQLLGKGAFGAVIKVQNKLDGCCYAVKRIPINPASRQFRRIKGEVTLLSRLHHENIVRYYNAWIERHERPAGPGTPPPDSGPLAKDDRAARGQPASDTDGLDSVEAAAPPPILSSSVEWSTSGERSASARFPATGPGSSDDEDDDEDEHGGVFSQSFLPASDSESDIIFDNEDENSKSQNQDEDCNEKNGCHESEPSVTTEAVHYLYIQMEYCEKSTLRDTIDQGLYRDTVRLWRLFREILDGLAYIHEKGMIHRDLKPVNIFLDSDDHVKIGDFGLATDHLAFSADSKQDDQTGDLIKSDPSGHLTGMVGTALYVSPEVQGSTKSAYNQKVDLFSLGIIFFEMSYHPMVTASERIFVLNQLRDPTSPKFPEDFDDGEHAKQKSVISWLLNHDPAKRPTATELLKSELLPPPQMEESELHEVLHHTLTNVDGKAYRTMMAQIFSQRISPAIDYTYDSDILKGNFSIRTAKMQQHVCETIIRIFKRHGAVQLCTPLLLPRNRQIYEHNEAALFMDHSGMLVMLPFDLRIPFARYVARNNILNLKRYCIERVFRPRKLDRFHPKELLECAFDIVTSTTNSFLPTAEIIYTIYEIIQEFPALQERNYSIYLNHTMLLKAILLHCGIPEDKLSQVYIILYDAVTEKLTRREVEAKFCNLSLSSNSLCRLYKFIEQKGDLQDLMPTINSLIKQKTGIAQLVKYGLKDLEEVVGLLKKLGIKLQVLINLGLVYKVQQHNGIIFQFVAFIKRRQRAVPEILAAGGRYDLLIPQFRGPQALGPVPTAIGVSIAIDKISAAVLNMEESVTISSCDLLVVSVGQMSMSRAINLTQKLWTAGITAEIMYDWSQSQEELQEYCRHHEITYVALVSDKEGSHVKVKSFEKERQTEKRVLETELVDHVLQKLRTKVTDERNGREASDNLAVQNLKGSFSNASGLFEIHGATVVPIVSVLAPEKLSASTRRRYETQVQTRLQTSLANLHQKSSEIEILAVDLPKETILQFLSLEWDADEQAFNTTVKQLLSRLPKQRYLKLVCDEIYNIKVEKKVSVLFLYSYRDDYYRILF
Chain of intracellular GCN2 (phosphorylation of the GCN2 substrate eIF2α) (Q9P2K8 whole entry): as above

Structure (SMILES) | pIC50 [1] | pIC50 [2] | pEC50 ([3]; Homo sapiens, T-cell, 96 h) | pKi [1] | IL2/T-cell EC50 ([3]; 96 hours) | pEC50 ([3]; 96 hours)
FC(F)(F)c1ccc2ncc(-c3nccc(N4CCN(C5CC6(COC6)C5)[C@H](c5cn[nH]c5)C4)n3)n2c1 [I-504, (R)-3-(4-(3-(1H-pyrazol-4-yl)-4-(2-oxaspiro[3.3]heptan-6-yl)piperazin-1-yl)pyrimidin-2-yl)-6-(trifluoromethyl)imidazo[1,2-a]pyridine] | > 8.00 | > 6.30 | 6.30 to 7.00 | – | – | –
NC(=O)[C@@H]1CCCN(c2ncc(F)c(-c3cnc4ccc(C(F)(F)F)cn34)n2)C1 [I-223, (R)-1-(5-fluoro-4-(6-(trifluoromethyl)imidazo[1,2-a]pyridin-3-yl)pyrimidin-2-yl)piperidine-3-carboxamide] | > 8.00 | > 6.30 | 6.30 to 7.00 | – | – | –
Cc1cc(-c2cnc3ccc(Cl)cn23)nc(N2C[C@H](C)C[C@H](c3cn[nH]c3)C2)n1 [I-209, 6-chloro-3-(6-methyl-2-((3R,5R)-3-methyl-5-(1H-pyrazol-4-yl)piperidin-1-yl)pyrimidin-4-yl)imidazo[1,2-a]pyridine] | 7.00 to 8.00 | > 6.30 | 6.30 to 7.00 | – | – | –
FC(F)(F)c1ccc2ncc(-c3nccc(N4CCN(CC5CCOCC5)C(c5cn[nH]c5)C4)n3)n2c1 (centres unmarked) [I-354, 3-(4-(3-(1H-pyrazol-4-yl)-4-((tetrahydro-2H-pyran-4-yl)methyl)piperazin-1-yl)pyrimidin-2-yl)-6-(trifluoromethyl)imidazo[1,2-a]pyridine] | > 8.00 | > 6.30 | 6.30 to 7.00 | – | – | –
C[C@H]1CN(c2nccc(-c3cnc4ccc(C(F)(F)F)cn34)n2)C[C@@H](c2cn[nH]c2)O1 [I-126, (2S,6R)-2-methyl-6-(1H-pyrazol-4-yl)-4-{4-[6-(trifluoromethyl)imidazo[1,2-a]pyridin-3-yl]pyrimidin-2-yl}morpholine] | > 8.00 | > 6.30 | 6.30 to 7.00 | – | – | –
NC(=O)[C@H]1CCCN(c2ccnc(-c3cnc4ccc(Cl)cn34)n2)C1 [I-102, (S)-1-(2-(6-chloroimidazo[1,2-a]pyridin-3-yl)pyrimidin-4-yl)piperidine-3-carboxamide] | – | > 6.30 | 6.30 to 7.00 | > 8.00 | – | –
C[C@@H]1CN(c2ccnc(-c3cnc4ccc(OC(F)(F)F)cn34)n2)C[C@H](c2cn[nH]c2)O1 [I-293, (2R,6 S)-2-methyl-6-(1H-pyrazol-4-yl)-4-(2-(6-(trifluoromethoxy)imidazo[1,2-a]pyridin-3-yl)pyrimidin-4-yl)morpholine] | > 8.00 | > 6.30 | > 7.00 | – | – | –
C[C@@H]1C[C@H](N=S(C)(C)=O)CN(c2ccnc(-c3cnc4cc(F)c(Cl)cn34)n2)C1 [I-191, (((3 S, 5R)-1-(2-(6-chloro-7-fluoroimidazo[1,2-a]pyridin-3-yl)pyrimidin-4-yl)-5-methylpiperidin-3-yl)imino)dimethyl-λ6-sulfanone] | 7.00 to 8.00 | > 6.30 | – | – | − (“−” for not active) | –
C[C@H]1C[C@@H](N=S(C)(C)=O)CN(c2ccnc(-c3cnc4ccc(Cl)cn34)n2)C1 (stereo in doubt) [I-128, (((3R,5S)-1-(2-(6-chloroimidazo[1,2-a]pyridin-3-yl)pyrimidin-4-yl)-5-methylpiperidin-3-yl)imino)dimethyl-λ6-sulfanone] | 7.00 to 8.00 | > 6.30 | < 6.30 | – | – | –
Cc1[nH]ncc1[C@@H]1C[C@H](O)CN(c2ccnc(-c3cnc4ccc(C(F)(F)F)cn34)n2)C1 [I-314, (3 S,5S)-5-(3-Methyl-1H-pyrazol-4-yl)-1-[2-(6-trifluoromethyl-imidazo[1,2-a]pyridin-3-yl)-pyrimidin-4-yl]-piperidin-3-ol] | > 8.00 | > 6.30 | – | – | − (“−” for not active) | –
C[C@H]1[C@@H](c2cn[nH]c2)N(CC2(C)COC2)CCN1c1ccnc(-c2cnc3ccc(C(F)(F)F)cn23)n1 [I-481, 3-(4-((2 S,3R)-2-methyl-4-((3-methyloxetan-3-yl)methyl)-3-(1H-pyrazol-4-yl)piperazin-1-yl)pyrimidin-2-yl)-6-(trifluoromethyl)imidazo[1,2-a]pyridine] | > 8.00 | > 6.30 | > 7.00 | – | – | –
C[C@H]1C[C@@H](c2cn[nH]c2)CN(c2nccc(-c3cnc4ccc(C5CC5)cn34)n2)C1 [I-250, 6-Cyclopropyl-3-{2-[(3 S,5S)-3-methyl-5-(1H-pyrazol-4-yl)-piperidin-1-yl]-pyrimidin-4-yl}-imidazo[1,2-a]pyridine] | 7.00 to 8.00 | > 6.30 | – | – | − (“−” for not active) | –
NC(=O)[C@H]1CN(c2ccnc(-c3cnc4ccc(C(F)(F)F)cn34)n2)CCN1C1CC1 [I-323, (R)-1-cyclopropyl-4-(2-(6-(trifluoromethyl)imidazo[1,2-a]pyridin-3-yl)pyrimidin-4-yl)piperazine-2-carboxamide] | > 8.00 | 5.30 to 6.30 | < 6.30 | – | – | –
Cc1[nH]ncc1[C@H]1C[C@@H](O)CN(c2ccnc(-c3cnc4ccc(C(F)(F)F)cn34)n2)C1 [I-315, (3R,5R)-5-(3-Methyl-1H-pyrazol-4-yl)-1-[2-(6-trifluoromethyl-imidazo[1,2-a]pyridin-3-yl)-pyrimidin-4-yl]-piperidin-3-ol] | > 8.00 | > 6.30 | 6.30 to 7.00 | – | – | –
Cc1[nH]ncc1[C@@H]1CN(c2ccnc(-c3cnc4ccc(C(F)(F)F)cn34)n2)C[C@H](C)O1 [I-124, 3-{4-[(2S,6R)-2-Methyl-6-(3-methyl-1H-pyrazol-4-yl)-morpholin-4-yl]-pyrimidin-2-yl}-6-trifluoromethyl-imidazo[1,2-a]pyridine] | > 8.00 | > 6.30 | 6.30 to 7.00 | – | – | > 7.00
NC(=O)[C@H]1CCCN(c2ccnc(-c3cnc4ccc(C(F)(F)F)cn34)n2)C1 [I-154, (S)-1-[2-(6-Trifluoromethyl-imidazo[1,2-a]pyridin-3-yl)-pyrimidin-4-yl]-piperidine-3-carboxylic acid amide] | > 8.00 | > 6.30 | > 7.00 | > 8.00 | – | –
C[C@H]1CN(c2ccnc(-c3cnc4ccc(Cl)cn34)n2)C[C@@H](c2cn[nH]c2F)O1 [I-176, (2R,6S)-4-(2-(6-chloroimidazo[1,2-a]pyridin-3-yl)pyrimidin-4-yl)-2-(5-fluoro-1H-pyrazol-4-yl)-6-methylmorpholine] | > 8.00 | > 6.30 | > 7.00 | – | – | –
C[C@@H]1CN(c2nccc(-c3cnc4ccc(C(F)(F)F)cn34)n2)C[C@@H](c2cn[nH]c2)O1 [I-135, (2R,6R)-2-methyl-6-(1H-pyrazol-4-yl)-4-(4-(6-(trifluoromethyl)imidazo[1,2-a]pyridin-3-yl)pyrimidin-2-yl)morpholine] | > 8.00 | > 6.30 | 6.30 to 7.00 | – | – | –
Cc1n[nH]cc1[C@@H]1CN(c2ccnc(-c3cnc4cc(Cl)c(C(F)(F)F)cn34)n2)C[C@H](C)O1 [I-359, (2S,6R)-4-(2-(7-chloro-6-(trifluoromethyl)imidazo[1,2-a]pyridin-3-yl)pyrimidin-4-yl)-2-methyl-6-(3-methyl-1H-pyrazol-4-yl)morpholine] | > 8.00 | > 6.30 | 6.30 to 7.00 | – | – | –
C[C@H]1CN(c2nccc(-c3cnc4ccc(Cl)cn34)n2)C[C@@H](c2cn[nH]c2)O1 [I-247, 6-Chloro-3-{2-[(2S,6R)-2-methyl-6-(1H-pyrazol-4-yl)-morpholin-4-yl]-pyrimidin-4-yl}-imidazo[1,2-a]pyridine] | > 8.00 | > 6.30 | > 7.00 | – | – | –

— patent US10793563B2, “GCN2 inhibitors and uses thereof” (Merck Patent GmbH, priority 2018, dated 2020)
